From patent US7820693B2, “1-(2H)-isoquinolone derivative” (Chugai Seiyaku Kabushiki Kaisha, priority 2005, dated 2010) come the findings set out here.

Broadly, the solubility is the dissolved amount per volume that the medium holds. A higher solubility goes with much dissolved substance. What is called IC50 is the concentration needed to halve the response being measured. Read a low IC50 as higher potency. In general, Solubility refers to the concentration that dissolves in the medium under given conditions.

SMILES strings stand for the structures. Where only a bound is given, the exact number is not on record here.

A short description of data set [1]: Measurement of solubility (HPLC of filtrate). The following applies: for solubility at 2 h: thermodynamic from solid.
Method: Measurement was carried out by preparing a four-point calibration curve (4,000 μM, 1,000 μM, 250 μM, and 31.3 μM) according to the internal standard method. A sample solution (100% DMSO) was freeze-dried, and each solution was then added thereto. The obtained mixture was stirred for 2 hours. Thereafter, a solution in which the sample had been dissolved was filtrated, and the filtrate was then analyzed with an analyzer. As an analysis method, the filtrate was measured by HPLC (HPLC). As dissolving solutions, a saline solution or a 50 mM sodium citrate-HCl buffer (pH 4.0) solution were used.
In data set [2] the test system is human colon cancer cell line HCT116. Kind of data set: Measurement of cell growth inhibitory activity (Cell Counting Kit-8). The following applies: HCT-116, 96 h, HCT116, 2,000 cells/well, cultured 4 days. The data set is classed as cell-based. On the procedure:
Cancer cell growth inhibitory activity was measured using Cell Counting Kit-8 manufactured by Dojindo Laboratories. The human colon cancer cell line HCT116 obtained from American Type Culture Collection (Virginia, U.S.A) was inoculated in a 96-well culture plate at a concentration of 2,000 cells/well. Thereafter, a certain concentration of compound was added thereto, and the obtained mixture was then cultured at 37° C. in 5% CO2, 95% air for 4 days. On the 4th day of the culture, a Cell Counting Kit-8 solution was added to the culture product, and absorbance (measurement wavelength: 450 nm; reference wavelength: 615 nm) was measured in accordance with protocols included with the kit. Thereafter, 50% growth inhibitory concentration (IC50) was calculated.
In general terms: Formazan colour is commonly taken as a measure of viable cells.

Data set [3] deals with human colon cancer cell line HCT116 transplanted into the inguinal subcutis. Kind of data set: Measurement of antitumor effect in tumor-bearing mouse. The data set is classed as in vivo, BALB/c nude mouse. The conditions noted are these: HCT116 xenograft, 300 mg/kg orally, twice (day 0 and 7 days after), vs control group. On the procedure:
A representative example of the compound group of the present invention was measured in terms of antitumor effect.
Such antitumor effect was examined, using a tumor-bearing mouse produced by transplanting the human colon cancer cell line HCT116 obtained from American Type Culture Collection (Virginia, U.S.A) into the inguinal subcutis of a BALB/c nude mouse purchased from Charles River Laboratories Japan, Inc. The purchased nude mouse was quarantined for 1 week. Thereafter, approximately 5×10^6 HCT116 cells were transplanted subcutaneously. When the size of a tumor thereof became 200 mm^3, the mouse was subjected to the present experiment.
Each compound was suspended in a solution to be administered, and 0.2 ml of the solution was orally administered. Such administration was carried out twice in total, that is, on the initiation date of administration and 7 days after the first administration. The antitumor effect was calculated as a tumor growth inhibition by comparing the agent-treated group with a control group in terms of tumor growth, on 14 days after the initiation date of administration. Tumor growth inhibition (TGI)=(1−the tumor growth amount of agent-treated group/the tumor growth amount of control group)×100(%) The results are shown in Table 7.

[4] abbreviates: 50 mM sodium citrate-HCl buffer (pH 4.0), pH 4, aqueous buffer.

The molecule `CNCC(=O)OC[C@@H]1CN(c2ccc3cc(-c4ccccc4C(F)(F)F)[nH]c(=O)c3c2)C(=O)O1.Cl` [Example B20, (S)-2-oxo-3-[1-oxo-3-(2-trifluoromethylphenyl)-1,2-dihydroisoquinolin-7-yl]oxazolidin-5-ylmethyl methylaminoacetate hydrochloride] yielded a solubility at 2 h in data set [1] (setting [4]) of over 2000 µM.

For `CN1C(=O)N(c2ccc3cc(-c4ccccc4C(F)(F)F)[nH]c(=O)c3c2)C[C@@H]1CO` [Example 36, 7-((R)-4-hydroxymethyl-3-methyl-2-oxoimidazolidin-1-yl)-3-(2-trifluoromethylphenyl)-2H-isoquinolin-1-one], in data set [2], 310 nM corresponded to half-maximal inhibition (IC50).

Molecule `O=C(OCCOCCOCCOCCOCCOCCO)OC[C@@H]1CN(c2ccc3cc(-c4ccccc4C(F)(F)F)[nH]c(=O)c3c2)C(=O)O1` [Example C45, 2-[2-(2-{2-[2-(2-hydroxyethoxy)ethoxy]ethoxy}ethoxy)ethoxy]ethyl carbonate (S)-2-oxo-3-[1-oxo-3-(2-trifluoromethylphenyl)-1,2-dihydroisoquinolin-7-yl]oxazolidin-5-ylmethyl ester] gave a solubility at 2 h in data set [1] (saline solution, saline or isotonic) of over 2000 µM.

In the case of `CC(C)[C@H](N)C(=O)OC[C@H]1CN(c2ccc3cc(-c4ccccc4C(F)(F)F)[nH]c(=O)c3c2)C(=O)O1.Cl` [Example B9, (R)-2-oxo-3-[1-oxo-3-(2-trifluoromethylphenyl)-1,2-dihydroisoquinolin-7-yl]oxazolidin-5-ylmethyl(S)-2-amino-3-methyl-butanoate hydrochloride], the solubility at 2 h in data set [1] (setting [4]) was over 2000 µM.

In the case of `O=C1N(CCO)CCN1c1ccc2cc(-c3ccccc3C(F)(F)F)[nH]c(=O)c2c1` [Example 9, 7-[3-(2-hydroxyethyl)-2-oxoimidazolidin-1-yl]-3-(2-trifluoromethylphenyl)-2H-isoquinolin-1-one], the midpoint of inhibition in data set [2], the IC50, lay at 530 nM.

As for `O=C1O[C@H](CO)CN1c1ccc2cc(-c3ccccc3OC(F)(F)F)[nH]c(=O)c2c1` [Example 27, 7-((S)-5-hydroxymethyl-2-oxooxazolidin-3-yl)-3-(2-trifluoromethoxyphenyl)-2H-isoquinolin-1-one], the 50% inhibitory concentration (IC50) in data set [2] turned out to be 21 nM.

The molecule `O=C1OC(CCO)CN1c1ccc2cc(-c3ccccc3C(F)(F)F)[nH]c(=O)c2c1` (stereo not shown) [Example 29, 7-[5-(2-hydroxyethyl)-2-oxooxazolidin-3-yl]-3-(2-trifluoromethylphenyl)-2H-isoquinolin-1-one] returned an IC50 in data set [2] of 91 nM.

For the molecule `O=C1C=C(OCc2ccccc2)CN1c1ccc2cc(-c3ccccc3C(F)(F)F)[nH]c(=O)c2c1` [Example 8, 7-(4-benzyloxy-2-oxo-2,5-dihydropyrrol-1-yl)-3-(2-trifluoromethylphenyl)-2H-isoquinolin-1-one], half-maximal inhibition in data set [2] (IC50) required 200 nM.

In turn, `CC(C)(OC(=O)c1ccccc1C(=O)[O-])[C@@H]1CN(c2ccc3cc(-c4ccccc4C(F)(F)F)[nH]c(=O)c3c2)C(=O)O1.[Na+]` [Example C6] yielded a Solubility in data set [1] (no asterisk: saline solution, stirred 2 hours) of over 2000 µM.

For `O=C(OC[C@@H]1COC(=O)N1c1ccc2cc(-c3ccccc3C(F)(F)F)[nH]c(=O)c2c1)c1ccccc1` [Example 11, (R)-2-oxo-3-[1-oxo-3-(2-trifluoromethylphenyl)-1,2-dihydroisoquinolin-7-yl]oxazolidin-4-ylmethyl benzoate], inhibition in data set [2] was half-maximal at 450 nM (IC50).

In data set [2], `O=C1CCCN1c1ccc2cc(-c3ccccc3C(F)(F)F)[nH]c(=O)c2c1` [Example 15, 7-(2-oxopyrrolidin-1-yl)-3-(2-trifluoromethylphenyl)-2H-isoquinolin-1-one] displayed an IC50 of 110 nM.

Regarding `CN1C(=O)N(c2ccc3cc(-c4ccccc4C(F)(F)F)[nH]c(=O)c3c2)C[C@@H]1COCc1ccccc1` [Example 35, 7-((R)-4-benzyloxymethyl-3-methyl-2-oxoimidazolidin-1-yl)-3-(2-trifluoromethylphenyl)-2H-isoquinolin-1-one], in data set [2], 960 nM corresponded to half-maximal inhibition (IC50).

`O=C1OC(CN2CCOCC2)CN1c1ccc2cc(-c3ccccc3C(F)(F)F)[nH]c(=O)c2c1` (stereo not shown) [Example 33, 7-(5-morpholin-4-ylmethyl-2-oxooxazolidin-3-yl)-3-(2-trifluoromethylphenyl)-2H-isoquinolin-1-one]: the IC50 in data set [2] worked out at 290 nM.

Molecule `CC(=O)NCC1CN(c2ccc3cc(-c4ccccc4C(F)(F)F)[nH]c(=O)c3c2)C(=O)O1` (stereo not shown) [Example 32, N-{2-oxo-3-[1-oxo-3-(2-trifluoromethylphenyl)-1,2-dihydroisoquinolin-7-yl]oxazolidin-5-ylmethyl}acetamide] displayed a concentration for half-maximal inhibition (IC50) in data set [2] of 530 nM.

On to `O=C1O[C@@H](CO)CN1c1ccc2cc(-c3ccccc3C(F)(F)F)[nH]c(=O)c2c1` [Example 14, 7-((R)-5-hydroxymethyl-2-oxooxazolidin-3-yl)-3-(2-trifluoromethylphenyl)-2H-isoquinolin-1-one], for which, in data set [2], the IC50 stood at 300 nM. In data set [3], the “TGI (%) obtained 14 days after administration” value was 113%.
